According to BindingDB's records for doi:10.1021/jm970333f (University of Catania, 1998):

Experiment: Inhibition of [3H]pentazocine binding to sigma-1 sites in guinea pig brain membranes

Compound	Ki [nM]
C[C@@H]1[C@@H]2Cc3ccc(O)cc3[C@]1(C)CCN2CCNC1CCCCC1 [(2S,6R,11S)-3-(2-Cyclohexylamino-ethyl)-6,11-dimethyl-1,2,3,4,5,6-hexahydro-2,6-methano-benzo[d]azocin-8-ol]	42
C[C@@H]1[C@@H]2Cc3ccc(O)cc3[C@]1(C)CCN2CCNCc1ccccc1 [(2S,6R,11S)-3-(2-Benzylamino-ethyl)-6,11-dimethyl-1,2,3,4,5,6-hexahydro-2,6-methano-benzo[d]azocin-8-ol]	30
C[C@@H]1[C@@H]2Cc3ccc(O)cc3[C@]1(C)CCN2CCN1CCOCC1 [(2S,6R,11S)-6,11-Dimethyl-3-(2-morpholin-4-yl-ethyl)-1,2,3,4,5,6-hexahydro-2,6-methano-benzo[d]azocin-8-ol]	13
C[C@@H]1[C@@H]2Cc3ccc(O)cc3[C@]1(C)CCN2CCN1CCCC1 [(2S,6R,11S)-6,11-Dimethyl-3-(2-pyrrolidin-1-yl-ethyl)-1,2,3,4,5,6-hexahydro-2,6-methano-benzo[d]azocin-8-ol]	7.4
C[C@@H]1[C@@H]2Cc3ccc(O)cc3[C@]1(C)CCN2CCN(C)C [(2S,6R,11S)-3-(2-Dimethylamino-ethyl)-6,11-dimethyl-1,2,3,4,5,6-hexahydro-2,6-methano-benzo[d]azocin-8-ol]	20
CCN(CC)CCN1CC[C@@]2(C)c3cc(O)ccc3C[C@H]1[C@H]2C [(2S,6R,11S)-3-(2-Diethylamino-ethyl)-6,11-dimethyl-1,2,3,4,5,6-hexahydro-2,6-methano-benzo[d]azocin-8-ol]	15
C[C@@H]1[C@@H]2Cc3ccc(O)cc3[C@]1(C)CCN2CCN1CCCCC1 [(2S,6R,11S)-6,11-Dimethyl-3-(2-piperidin-1-yl-ethyl)-1,2,3,4,5,6-hexahydro-2,6-methano-benzo[d]azocin-8-ol]	9.6
C=CCN1CCC2c3cc(O)ccc3CC1C2C (configuration not stated) [SK&F-10047]	169
C[C@@H]1[C@@H]2Cc3ccc(O)cc3[C@]1(C)CCN2CCNc1ccccc1 [(2S,6R,11S)-6,11-Dimethyl-3-(2-phenylamino-ethyl)-1,2,3,4,5,6-hexahydro-2,6-methano-benzo[d]azocin-8-ol]	5.9
C[C@@H]1[C@@H]2Cc3ccc(O)cc3[C@]1(C)CCN2CCN1CCCCCC1 [(2S,6R,11S)-3-(2-Azepan-1-yl-ethyl)-6,11-dimethyl-1,2,3,4,5,6-hexahydro-2,6-methano-benzo[d]azocin-8-ol]	20
CCN(CCN1CC[C@@]2(C)c3cc(O)ccc3C[C@H]1[C@H]2C)c1ccccc1 [(2S,6R,11S)-3-[2-(Ethyl-phenyl-amino)-ethyl]-6,11-dimethyl-1,2,3,4,5,6-hexahydro-2,6-methano-benzo[d]azocin-8-ol]	42
C[C@@H]1[C@@H]2Cc3ccc(O)cc3[C@]1(C)CCN2CCN(C)c1ccccc1 [(2S,6R,11S)-6,11-Dimethyl-3-[2-(methyl-phenyl-amino)-ethyl]-1,2,3,4,5,6-hexahydro-2,6-methano-benzo[d]azocin-8-ol]	5.6
